# PubChem BioAssay (NCI)
#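 Compound exposure: 48 hours, 5 concentrations, 96-well plates. The concentration for full growth arrest is given as TGI.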
# How the values were obtained:
# Test in all cases: growth of human tumour cells (NCI), 48 h
# 786-0 renal = tested on: 786-0 renal
# A498 renal = tested on: A498 renal
# A549 NSCLC = tested on: A549 NSCLC
# ACHN renal = tested on: ACHN renal
# CAKI-1 renal = tested on: CAKI-1 renal
# CCRF-CEM leukemia = tested on: CCRF-CEM leukemia
# COLO 205 colon = tested on: COLO 205 colon
# DLD-1 colon = tested on: DLD-1 colon
# DMS 114 small cell lung = tested on: DMS 114 small cell lung
# DMS 273 small cell lung = tested on: DMS 273 small cell lung
# EKVX NSCLC = tested on: EKVX NSCLC
# HCC-2998 colon = tested on: HCC-2998 colon
# HCT-116 colon = tested on: HCT-116 colon
# HCT-15 colon = tested on: HCT-15 colon
# HOP-62 NSCLC = tested on: HOP-62 NSCLC
# HOP-92 NSCLC = tested on: HOP-92 NSCLC
# HT29 colon = tested on: HT29 colon
# IGROV1 ovarian = tested on: IGROV1 ovarian
# K-562 leukemia = tested on: K-562 leukemia
# KM12 colon = tested on: KM12 colon
# KM20L2 colon = tested on: KM20L2 colon
# LXFL 529 NSCLC = tested on: LXFL 529 NSCLC
# M14 melanoma = tested on: M14 melanoma
# M19-MEL melanoma = tested on: M19-MEL melanoma
# MALME-3M melanoma = tested on: MALME-3M melanoma
# MOLT-4 leukemia = tested on: MOLT-4 leukemia
# NCI-H226 lung = tested on: NCI-H226 lung
# NCI-H23 lung = tested on: NCI-H23 lung
# NCI-H460 lung = tested on: NCI-H460 lung
# NCI-H522 lung = tested on: NCI-H522 lung
# OVCAR-3 ovarian = tested on: OVCAR-3 ovarian
# OVCAR-4 ovarian = tested on: OVCAR-4 ovarian
# OVCAR-5 ovarian = tested on: OVCAR-5 ovarian
# OVCAR-8 ovarian = tested on: OVCAR-8 ovarian
# RPMI-8226 leukemia = tested on: RPMI-8226 leukemia
# SF-268 CNS = tested on: SF-268 CNS
# SF-539 CNS = tested on: SF-539 CNS
# SK-MEL-2 melanoma = tested on: SK-MEL-2 melanoma
# SK-MEL-28 melanoma = tested on: SK-MEL-28 melanoma
# SK-MEL-5 melanoma = tested on: SK-MEL-5 melanoma
# SK-OV-3 ovarian = tested on: SK-OV-3 ovarian
# SN12C renal = tested on: SN12C renal
# SNB-19 CNS = tested on: SNB-19 CNS
# SNB-75 CNS = tested on: SNB-75 CNS
# SR leukemia = tested on: SR leukemia
# SW-620 colon = tested on: SW-620 colon
# U251 CNS = tested on: U251 CNS
# UACC-257 melanoma = tested on: UACC-257 melanoma
# UACC-62 melanoma = tested on: UACC-62 melanoma
# UO-31 renal = tested on: UO-31 renal
# XF 498 CNS = tested on: XF 498 CNS
# HL-60(TB) leukemia = tested on: HL-60(TB) leukemia
# LOX IMVI melanoma = tested on: LOX IMVI melanoma
# RXF 393 renal = tested on: RXF 393 renal
# SF-295 CNS = tested on: SF-295 CNS
# SNB-78 CNS = tested on: SNB-78 CNS
# TK-10 renal = tested on: TK-10 renal
# BT-549 breast = tested on: BT-549 breast
# DU-145 prostate = tested on: DU-145 prostate
# HS 578T breast = tested on: HS 578T breast
# MCF7 breast = tested on: MCF7 breast
# MDA-MB-231 breast = tested on: MDA-MB-231 breast
# MDA-MB-435 = tested on: MDA-MB-435
# MDA-N = tested on: MDA-N
# NCI/ADR-RES ovarian = tested on: NCI/ADR-RES ovarian
# PC-3 prostate = tested on: PC-3 prostate
# T-47D breast = tested on: T-47D breast
structure (smiles),measurement,setting,value
COc1ccc(/C=C(\NC(=O)c2ccccc2)c2nc3ccccc3[nH]2)cc1,TGI,786-0 renal,> 100 µM
same,TGI,A498 renal,> 100 µM
same,TGI,A549 NSCLC,> 100 µM
same,TGI,ACHN renal,> 100 µM
same,TGI,CAKI-1 renal,> 100 µM
same,TGI,CCRF-CEM leukemia,> 100 µM
same,TGI,COLO 205 colon,75.8 µM
same,TGI,DLD-1 colon,> 100 µM
same,TGI,DMS 114 small cell lung,90.6 µM
same,TGI,DMS 273 small cell lung,> 100 µM
same,TGI,EKVX NSCLC,> 100 µM
same,TGI,HCC-2998 colon,> 100 µM
same,TGI,HCT-116 colon,> 100 µM
same,TGI,HCT-15 colon,> 100 µM
same,TGI,HOP-62 NSCLC,> 100 µM
same,TGI,HOP-92 NSCLC,> 100 µM
same,TGI,HT29 colon,> 100 µM
same,TGI,IGROV1 ovarian,> 100 µM
same,TGI,K-562 leukemia,> 100 µM
same,TGI,KM12 colon,> 100 µM
same,TGI,KM20L2 colon,> 100 µM
same,TGI,LXFL 529 NSCLC,> 100 µM
same,TGI,M14 melanoma,> 100 µM
same,TGI,M19-MEL melanoma,> 100 µM
same,TGI,MALME-3M melanoma,> 100 µM
same,TGI,MOLT-4 leukemia,83.1 µM
same,TGI,NCI-H226 lung,> 100 µM
same,TGI,NCI-H23 lung,56.1 µM
same,TGI,NCI-H460 lung,> 100 µM
same,TGI,NCI-H522 lung,> 100 µM
same,TGI,OVCAR-3 ovarian,> 100 µM
same,TGI,OVCAR-4 ovarian,> 100 µM
same,TGI,OVCAR-5 ovarian,84.5 µM
same,TGI,OVCAR-8 ovarian,> 100 µM
same,TGI,RPMI-8226 leukemia,69.9 µM
same,TGI,SF-268 CNS,> 100 µM
same,TGI,SF-539 CNS,> 100 µM
same,TGI,SK-MEL-2 melanoma,48.4 µM
same,TGI,SK-MEL-28 melanoma,37.5 µM
same,TGI,SK-MEL-5 melanoma,29 µM
same,TGI,SK-OV-3 ovarian,96.5 µM
same,TGI,SN12C renal,> 100 µM
same,TGI,SNB-19 CNS,> 100 µM
same,TGI,SNB-75 CNS,99.4 µM
same,TGI,SR leukemia,89.8 µM
same,TGI,SW-620 colon,> 100 µM
same,TGI,U251 CNS,> 100 µM
same,TGI,UACC-257 melanoma,58.7 µM
same,TGI,UACC-62 melanoma,> 100 µM
same,TGI,UO-31 renal,74.5 µM
same,TGI,XF 498 CNS,46.2 µM
COc1cc(C2C(C(=O)Nc3ccc(Cl)c(Cl)c3)=C(C)NC(C)=C2C(=O)Nc2ccc(Cl)c(Cl)c2)ccc1O,TGI,786-0 renal,25.3 µM
same,TGI,A498 renal,28.5 µM
same,TGI,A549 NSCLC,31.5 µM
same,TGI,ACHN renal,32.9 µM
same,TGI,CAKI-1 renal,34.1 µM
same,TGI,CCRF-CEM leukemia,13.5 µM
same,TGI,COLO 205 colon,30.2 µM
same,TGI,DLD-1 colon,22.4 µM
same,TGI,DMS 114 small cell lung,24.2 µM
same,TGI,EKVX NSCLC,28.1 µM
same,TGI,HCC-2998 colon,23.5 µM
same,TGI,HL-60(TB) leukemia,23.3 µM
same,TGI,HOP-62 NSCLC,23.1 µM
same,TGI,HOP-92 NSCLC,11.1 µM
same,TGI,HT29 colon,31.7 µM
same,TGI,IGROV1 ovarian,42 µM
same,TGI,K-562 leukemia,26.2 µM
same,TGI,KM12 colon,27 µM
same,TGI,KM20L2 colon,54.7 µM
same,TGI,LOX IMVI melanoma,33.9 µM
same,TGI,LXFL 529 NSCLC,21.2 µM
same,TGI,M14 melanoma,26.9 µM
same,TGI,M19-MEL melanoma,32 µM
same,TGI,MALME-3M melanoma,27.3 µM
same,TGI,MOLT-4 leukemia,26.9 µM
same,TGI,NCI-H226 lung,40.8 µM
same,TGI,NCI-H23 lung,27.5 µM
same,TGI,NCI-H460 lung,35.5 µM
same,TGI,NCI-H522 lung,14.7 µM
same,TGI,OVCAR-3 ovarian,27.7 µM
same,TGI,OVCAR-4 ovarian,23 µM
same,TGI,OVCAR-5 ovarian,38.8 µM
same,TGI,OVCAR-8 ovarian,40.3 µM
same,TGI,RPMI-8226 leukemia,30.1 µM
same,TGI,RXF 393 renal,12.8 µM
same,TGI,SF-268 CNS,30.8 µM
same,TGI,SF-295 CNS,34.5 µM
same,TGI,SF-539 CNS,24.9 µM
same,TGI,SK-MEL-2 melanoma,23.5 µM
same,TGI,SK-MEL-28 melanoma,27.3 µM
same,TGI,SK-MEL-5 melanoma,25.5 µM
same,TGI,SK-OV-3 ovarian,34.5 µM
same,TGI,SN12C renal,30.9 µM
same,TGI,SNB-19 CNS,25.6 µM
same,TGI,SNB-75 CNS,34.5 µM
same,TGI,SNB-78 CNS,53.5 µM
same,TGI,SW-620 colon,29 µM
same,TGI,TK-10 renal,42.6 µM
same,TGI,U251 CNS,34.7 µM
same,TGI,UACC-257 melanoma,28.7 µM
same,TGI,UO-31 renal,25.6 µM
same,TGI,XF 498 CNS,33.1 µM
COc1ccc(/C=N/NC(=O)c2ccccc2Nc2ccccc2C(=O)N/N=C/c2ccc(OC)c(OC)c2)cc1OC,TGI,786-0 renal,> 100 µM
same,TGI,A498 renal,> 100 µM
same,TGI,A549 NSCLC,> 100 µM
same,TGI,ACHN renal,> 100 µM
same,TGI,BT-549 breast,> 100 µM
same,TGI,CAKI-1 renal,> 100 µM
same,TGI,CCRF-CEM leukemia,> 100 µM
same,TGI,COLO 205 colon,> 100 µM
same,TGI,DU-145 prostate,> 100 µM
same,TGI,EKVX NSCLC,> 100 µM
same,TGI,HCC-2998 colon,> 100 µM
same,TGI,HCT-116 colon,> 100 µM
same,TGI,HCT-15 colon,> 100 µM
same,TGI,HL-60(TB) leukemia,> 100 µM
same,TGI,HOP-62 NSCLC,> 100 µM
same,TGI,HOP-92 NSCLC,> 100 µM
same,TGI,HS 578T breast,> 100 µM
same,TGI,HT29 colon,> 100 µM
same,TGI,IGROV1 ovarian,> 100 µM
same,TGI,K-562 leukemia,> 100 µM
same,TGI,KM12 colon,> 100 µM
same,TGI,M14 melanoma,> 100 µM
same,TGI,MALME-3M melanoma,> 100 µM
same,TGI,MCF7 breast,> 100 µM
same,TGI,MDA-MB-231 breast,89.1 µM
same,TGI,MDA-MB-435,> 100 µM
same,TGI,MDA-N,> 100 µM
same,TGI,MOLT-4 leukemia,> 100 µM
same,TGI,NCI-H226 lung,> 100 µM
same,TGI,NCI-H23 lung,> 100 µM
same,TGI,NCI-H460 lung,> 100 µM
same,TGI,NCI/ADR-RES ovarian,> 100 µM
same,TGI,OVCAR-3 ovarian,> 100 µM
same,TGI,OVCAR-4 ovarian,> 100 µM
same,TGI,OVCAR-5 ovarian,> 100 µM
same,TGI,OVCAR-8 ovarian,> 100 µM
same,TGI,PC-3 prostate,> 100 µM
same,TGI,RPMI-8226 leukemia,> 100 µM
same,TGI,RXF 393 renal,> 100 µM
same,TGI,SF-268 CNS,> 100 µM
same,TGI,SF-295 CNS,> 100 µM
same,TGI,SK-MEL-2 melanoma,> 100 µM
same,TGI,SK-MEL-28 melanoma,> 100 µM
same,TGI,SK-MEL-5 melanoma,> 100 µM
same,TGI,SK-OV-3 ovarian,> 100 µM
same,TGI,SN12C renal,> 100 µM
same,TGI,SNB-19 CNS,> 100 µM
same,TGI,SNB-75 CNS,> 100 µM
same,TGI,SR leukemia,> 100 µM
same,TGI,SW-620 colon,> 100 µM
same,TGI,T-47D breast,> 100 µM
same,TGI,TK-10 renal,> 100 µM
same,TGI,U251 CNS,> 100 µM
same,TGI,UACC-257 melanoma,> 100 µM
same,TGI,UACC-62 melanoma,> 100 µM
same,TGI,UO-31 renal,> 100 µM
